US20200290950A1, “ALKAMIDE COMPOUNDS AND USES THEREOF” (NORTH CAROLINA STATE UNIVERSITY, priority 2017, published 2020)

Columns and labels:
[1] = system: Jurkat T cells; experiment: Fluo-4 calcium assay, Jurkat cells; type: cell-based; conditions: 1 μM A23187, 100 μM A15, at 1 min
Method: FIGS. 4A-4D. A15 inhibits A23187-stimulated calcium influx in RAW 264.7 and Jurkat cells. RAW 264.7 (FIG. 4A-4B) or Jurkat cells (FIG. 4C-4D) were loaded with fluo-4 AM using the Fluo-4 AM Direct™ Calcium Assay Kit and fluorescence was measured on a microplate reader. Cells were stimulated with 1 μM A23187 in combination with vehicle only or 100 μM A15. Bar graphs represent the means±SEM of the Δ in RFU's at 1 min post-A23187 stimulation from 3 independent experiments. Statistical analysis was performed using an unpaired Student's t-test, *p<0.05.
RBL-2H3, BMMC, RAW 264.7, or Jurkat cells were plated in clear-bottom, black, 96-well plates (BioExpress, Kaysville, Utah) and incubated overnight with media only or media containing IgE anti-DNP. […] Prior to stimulation, baseline fluorescent readings were measured from triplicate wells in 5 s intervals for 1 min using a Synergy HT microplate reader with 485/20 nm excitation and 528/20 nm emission filters. Cells were then treated with either 1 μM A23187 or 50 ng/mL DNP-BSA prepared in calcium- and magnesium-containing or calcium- and magnesium-free HBSS with 20 mM HEPES, and fluorescence was measured in 10 s intervals for 2 min. […] The average baseline fluorescence of each well was subtracted from the stimulated fluorescent values to calculate the change (Δ) in RFU's and graphed as shown.

[2] = system: RBL-2H3 cells; experiment: β-hexosaminidase degranulation assay, RBL-2H3 cells (Example 1); type: cell-based, rat
Method: FIGS. 1A-1F. A15 inhibits BMMC and RBL-2H3 cell degranulation. The structure of alkamide A15 is shown with different functional groups and carbons in the fatty acid chain labeled (FIG. 1A). BMMCs were plated and stimulated 4 hrs later with 1 μM A23187 and the indicated concentrations of A15 or vehicle only. The percent degranulation was measured after 1 hr (FIG. 1B). RBL-2H3 cells were treated with A23187 and the percent degranulation was determined 1 hr later (FIG. 1C) or every 10 min over a 1 hr time course (FIG. 1D). RBL-2H3 cells were plated and incubated for 4 hrs before the media was aspirated and replaced with media containing 1 μg/mL IgE anti-DNP. Cells were incubated overnight and washed prior to stimulation. […] RBL-2H3 cells were stimulated for 1 hr in Tyrode's buffer before supernatants were collected and levels of histamine were measured using a competitive inhibition EIA kit (FIG. 1F). […]
FIGS. 5A-5D. […] Percent degranulation was measured 1 hr after stimulation with 1 μM A23187 in combination with vehicle only or 25 μg/mL of the indicated E. purpurea samples. […] RBL-2H3 cells were loaded with fluo-4 AM using the Fluo-4 AM Direct™ Calcium Assay Kit and fluorescence was measured on a microplate reader. […]
RBL-2H3 cell and BMMC degranulation was measured using a β-hexosaminidase (β-hex) activity assay. […] Absorbance was read at 405 nm on a BioTek Synergy HT microplate reader. […]

SMILES: CCCCCCC/C=C/C=C/C(=O)NCC(C)C [A15, (2E,4E)-N-Isobutyldodeca-2,4-dienamide]
- suppression of calcium influx [1]: 43.6%
- degranulation ([2]; RBL-2H3 cells activated by IgE anti-DNP and DNP-BSA): inhibited degranulation
- inhibition at 100 µM ([2]; Rattus norvegicus, A23187-stimulated RBL-2H3 cells, 100 μM, 1 hr, read-out: inhibition of release of β-hex): 48.4%
